Like-named read-outs stand apart in the source and are kept apart here. Ends that are not written are not given here.
Key:
[1] = format: in vivo, NIH/Swiss mice; details: 80 nmol/Kg; AUC240
Procedure: Gavage (1.5g/kg) was given at t=0. Sample was taken at t=30 min.

[2] = cited from earlier work; for EC(50): inhibition of gastric emptying, subcutaneous

Row | Compound | Basal Glucose Lowering at 80 nmol/Kg [1] | EC(50) ([2]; conscious rats ~200g) [µg] | EC(50) ([2]; conscious rats) [nmol/kg] | further results
1 | CC[C@H](C)[C@H](NC(=O)[C@H](CO)NC(=O)[C@H](Cc1ccc(O)cc1)NC(=O)[C@H](CC(=O)O)NC(=O)[C@H](CO)NC(=O)[C@@H](NC(=O)[C@H](Cc1ccccc1)NC(=O)[C@@H](NC(=O)CNC(=O)[C@H](CCC(=O)O)NC(=O)[C@@H](C)NC(=O)[C@@H](N)Cc1ccc(O)cc1)[C@@H](C)O)[C@@H](C)CC)C(=O)N[C@@H](C)C(=O)N[C@@H](CCSC)C(=O)N[C@@H](CC(=O)O)C(=O)N[C@@H](CCCCN)C(=O)N[C@H](C(=O)N[C@@H](Cc1c[nH]cn1)C(=O)N[C@@H](CCC(N)=O)C(=O)N[C@@H](CCC(N)=O)C(=O)N[C@@H](CC(=O)O)C(=O)N[C@@H](Cc1ccccc1)C(=O)N[C@H](C(=O)N[C@@H](CCC(N)=O)C(=O)N[C@@H](Cc1c[nH]c2ccccc12)C(=O)N[C@@H](CC(C)C)C(=O)N[C@@H](CC(C)C)C(=O)N[C@@H](C)C(=O)N[C@@H](CCC(N)=O)C(=O)N[C@@H](CCCCN)C(=O)N1CCC[C@H]1C(=O)N[C@@H](CO)C(=O)N[C@@H](CO)C(=O)NCC(=O)N[C@@H](C)C(=O)N1CCC[C@H]1C(=O)N1CCC[C@H]1C(=O)N1CCC[C@H]1C(=O)N[C@@H](CO)C(N)=O)C(C)C)[C@@H](C)CC [0601 GIP48 46] | -6%, AUC2 40 | – | – | –
2 | CC[C@H](C)[C@H](NC(=O)[C@H](CO)NC(=O)[C@H](Cc1ccc(O)cc1)NC(=O)[C@H](CC(=O)O)NC(=O)[C@H](CO)NC(=O)[C@@H](NC(=O)[C@H](Cc1ccccc1)NC(=O)[C@@H](NC(=O)CNC(=O)[C@H](CCC(=O)O)NC(=O)[C@@H](C)NC(=O)[C@@H](N)Cc1ccc(O)cc1)[C@@H](C)O)[C@@H](C)CC)C(=O)N[C@@H](C)C(=O)N[C@@H](CCSC)C(=O)N[C@@H](CC(=O)O)C(=O)N[C@@H](CCCCN)C(=O)N[C@H](C(=O)N[C@@H](Cc1c[nH]cn1)C(=O)N[C@@H](CCC(N)=O)C(=O)N[C@@H](CCC(N)=O)C(=O)N[C@@H](CC(=O)O)C(=O)N[C@@H](Cc1ccccc1)C(=O)N[C@H](C(=O)N[C@@H](CC(N)=O)C(=O)N[C@@H](Cc1c[nH]c2ccccc12)C(=O)N[C@@H](CC(C)C)C(=O)N[C@@H](CC(C)C)C(=O)N[C@@H](C)C(=O)N[C@@H](CCC(N)=O)C(=O)N[C@@H](CCCCN)C(=O)N1CCC[C@H]1C(=O)N[C@@H](CO)C(=O)N[C@@H](CO)C(=O)NCC(=O)N[C@@H](C)C(=O)N1CCC[C@H]1C(=O)NCC(=O)N1CCC[C@H]1C(=O)N[C@@H](CO)C(N)=O)C(C)C)[C@@H](C)CC [0601 GIP49 52] | -1, AUC2 40% | – | – | –
3 | CC[C@H](C)[C@H](NC(=O)[C@H](CO)NC(=O)[C@H](Cc1ccc(O)cc1)NC(=O)[C@H](CC(=O)O)NC(=O)[C@H](CO)NC(=O)[C@@H](NC(=O)[C@H](Cc1ccccc1)NC(=O)[C@@H](NC(=O)CNC(=O)[C@H](CCC(=O)O)NC(=O)[C@@H](C)NC(=O)[C@@H](N)Cc1ccc(O)cc1)[C@@H](C)O)[C@@H](C)CC)C(=O)N[C@@H](C)C(=O)N[C@@H](CC(C)C)C(=O)N[C@@H](CC(=O)O)C(=O)N[C@@H](CCCCN)C(=O)N[C@H](C(=O)N[C@@H](CCCNC(=N)N)C(=O)N[C@@H](CCC(N)=O)C(=O)N[C@@H](CCC(N)=O)C(=O)N[C@@H](CCC(=O)O)C(=O)N[C@@H](Cc1ccccc1)C(=O)N[C@H](C(=O)N[C@@H](CC(N)=O)C(=O)N[C@@H](Cc1c[nH]c2ccccc12)C(=O)N[C@@H](CC(C)C)C(=O)N[C@@H](CC(C)C)C(=O)N[C@@H](C)C(=O)N[C@@H](CCC(N)=O)C(=O)N[C@@H](CCCCN)C(=O)N1CCC[C@H]1C(=O)N[C@@H](CCCCN)C(=O)N[C@@H](CCCCN)C(=O)N[C@H](C(=O)N[C@@H](CCCNC(=N)N)C(=O)N[C@@H](Cc1ccc(O)cc1)C(=O)N[C@@H](CO)C(N)=O)[C@@H](C)CC)C(C)C)[C@@H](C)CC [0601GIP4539] | -5%, AUC240 | – | – | –
4 | CC[C@H](C)[C@H](NC(=O)[C@H](CO)NC(=O)[C@H](Cc1ccc(O)cc1)NC(=O)[C@H](CC(=O)O)NC(=O)[C@H](CO)NC(=O)[C@@H](NC(=O)[C@H](Cc1ccccc1)NC(=O)[C@@H](NC(=O)CNC(=O)[C@H](CCC(=O)O)NC(=O)[C@@H](C)NC(=O)[C@@H](N)Cc1ccc(O)cc1)[C@@H](C)O)[C@@H](C)CC)C(=O)N[C@@H](C)C(=O)N[C@@H](CCSC)C(=O)N[C@@H](CC(=O)O)C(=O)N[C@@H](CCCCN)C(=O)N[C@H](C(=O)N[C@@H](Cc1c[nH]cn1)C(=O)N[C@@H](CCC(N)=O)C(=O)N[C@@H](CCC(N)=O)C(=O)N[C@@H](CC(=O)O)C(=O)N[C@@H](Cc1ccccc1)C(=O)N[C@H](C(=O)N[C@@H](CC(N)=O)C(=O)N[C@@H](Cc1c[nH]c2ccccc12)C(=O)N[C@@H](CC(C)C)C(=O)N[C@@H](CC(C)C)C(=O)N[C@@H](C)C(=O)N[C@@H](CCC(N)=O)C(=O)N[C@@H](CCCCN)C(=O)NCCC(=O)NCCC(=O)N1CCC[C@H]1C(=O)N[C@@H](CCCCN)C(=O)N[C@@H](CCCCN)C(=O)N[C@H](C(=O)N[C@@H](CCCNC(=N)N)C(=O)N[C@@H](Cc1ccc(O)cc1)C(=O)N[C@@H](CO)C(N)=O)[C@@H](C)CC)C(C)C)[C@@H](C)CC [0601GIP4648] | -8%, AUC240 | – | – | –
5 | CC[C@H](C)[C@H](NC(=O)[C@H](CO)NC(=O)[C@H](Cc1ccc(O)cc1)NC(=O)[C@H](CC(=O)O)NC(=O)[C@H](CO)NC(=O)[C@@H](NC(=O)[C@H](Cc1ccccc1)NC(=O)[C@@H](NC(=O)CNC(=O)[C@H](CCC(=O)O)NC(=O)[C@@H](C)NC(=O)[C@@H](N)Cc1ccc(O)cc1)[C@@H](C)O)[C@@H](C)CC)C(=O)N[C@@H](C)C(=O)N[C@@H](CCSC)C(=O)N[C@@H](CC(=O)O)C(=O)N[C@@H](CCCCN)C(=O)N[C@H](C(=O)N[C@@H](Cc1c[nH]cn1)C(=O)N[C@@H](CCC(N)=O)C(=O)N[C@@H](CCC(N)=O)C(=O)N[C@@H](CC(=O)O)C(=O)N[C@@H](Cc1ccccc1)C(=O)N[C@H](C(=O)N[C@@H](CC(N)=O)C(=O)N[C@@H](Cc1c[nH]c2ccccc12)C(=O)N[C@@H](CC(C)C)C(=O)N[C@@H](CC(C)C)C(=O)N[C@@H](C)C(=O)N[C@@H](CCC(N)=O)C(=O)N[C@@H](CCCCN)C(=O)N1CCC[C@H]1C(=O)N[C@@H](CCCCN)C(=O)NCC(=O)N[C@@H](CCCCN)C(=O)NCC(=O)N[C@@H](CCCCN)C(=O)N[C@@H](CO)C(N)=O)C(C)C)[C@@H](C)CC [0601GIP4700] | -6%, AUC240 | – | – | –
6 | CC[C@H](C)[C@H](NC(=O)[C@H](CO)NC(=O)[C@H](Cc1ccc(O)cc1)NC(=O)[C@H](CC(=O)O)NC(=O)[C@H](CO)NC(=O)[C@@H](NC(=O)[C@H](Cc1ccccc1)NC(=O)[C@@H](NC(=O)CNC(=O)[C@H](CCC(=O)O)NC(=O)[C@@H](C)NC(=O)[C@@H](N)Cc1ccc(O)cc1)[C@@H](C)O)[C@@H](C)CC)C(=O)N[C@@H](C)C(=O)N[C@@H](CCSC)C(=O)N[C@@H](CC(=O)O)C(=O)N[C@@H](CCCCN)C(=O)N[C@H](C(=O)N[C@@H](Cc1c[nH]cn1)C(=O)N[C@@H](CCC(N)=O)C(=O)N[C@@H](CCC(N)=O)C(=O)N[C@@H](CC(=O)O)C(=O)N[C@@H](Cc1ccccc1)C(=O)N[C@H](C(=O)N[C@@H](CC(N)=O)C(=O)N[C@@H](Cc1c[nH]c2ccccc12)C(=O)N[C@@H](CC(C)C)C(=O)N[C@@H](CC(C)C)C(=O)N[C@@H](C)C(=O)N[C@@H](CCC(N)=O)C(=O)N[C@@H](CCCCN)C(=O)N1CCC[C@H]1C(=O)N[C@@H](CO)C(=O)N[C@@H](CCCCN)C(=O)N[C@@H](CCC(=O)O)C(=O)N[C@H](C(=O)N[C@H](C(=O)N[C@@H](CO)C(N)=O)[C@@H](C)CC)[C@@H](C)CC)C(C)C)[C@@H](C)CC [Compound 0601GIP4234] | -11%, AUC240 | – | – | –
7 | CC[C@H](C)[C@H](NC(=O)[C@H](CO)NC(=O)[C@H](Cc1ccc(O)cc1)NC(=O)[C@H](CC(=O)O)NC(=O)[C@H](CO)NC(=O)[C@@H](NC(=O)[C@H](Cc1ccccc1)NC(=O)[C@@H](NC(=O)CNC(=O)[C@H](CCC(=O)O)NC(=O)[C@@H](C)NC(=O)[C@@H](N)Cc1ccc(O)cc1)[C@@H](C)O)[C@@H](C)CC)C(=O)N[C@@H](C)C(=O)N[C@@H](CCSC)C(=O)N[C@@H](CC(=O)O)C(=O)N[C@@H](CCCCN)C(=O)N[C@H](C(=O)N[C@@H](Cc1c[nH]cn1)C(=O)N[C@@H](CCC(N)=O)C(=O)N[C@@H](CCC(N)=O)C(=O)N[C@@H](CC(=O)O)C(=O)N[C@@H](Cc1ccccc1)C(=O)N[C@H](C(=O)N[C@@H](CC(N)=O)C(=O)N[C@@H](Cc1c[nH]c2ccccc12)C(=O)N[C@@H](CC(C)C)C(=O)N[C@@H](CC(C)C)C(=O)N[C@@H](C)C(=O)N[C@@H](CCC(N)=O)C(=O)N[C@@H](CCCCN)C(=O)N[C@H](C(=O)N[C@@H](CO)C(=O)N1CCC[C@H]1C(=O)N[C@@H](CCCNC(=N)N)C(=O)N1CCC[C@H]1C(=O)N1CCC[C@H]1C(=O)N[C@@H](CO)C(N)=O)[C@@H](C)O)C(C)C)[C@@H](C)CC [Compound 0601GIP4236] | -12%, | – | – | –
8 | CSNLSTCVLGKLSQELHKLQTYPRTNTGSGTP [Salmon calcitonin] | – | 0.19 | 0.28 | –
9 | Gastrin releasing peptide: peptide compared for inhibition of gastric emptying in conscious rats (VPLPAGGGTVLTKMYPRGNHWAVGHLM; ends and bridges not checked; UniProt P07492 24-50, looked up) | – | 28.5 | 49.9 | –
10 | KCNTATCATQRLANFLVHSSNNFGAILSSTNVGSNTY [Human amylin] | – | 0.15 | 0.19 | –
11 | PACAP38: pituitary adenylate cyclase activating peptide (HSDGIFTDSYSRYRKQMAVKKYLAAVLGKRYKQRVKNK-NH2; ends and bridges not checked; UniProt P18509 132-169, looked up) | – | – | – | inhibition of gastric emptying ([2]; at doses of 100µg): weakly active or inactive
12 | Rat CGRP: peptide compared for inhibition of gastric emptying in conscious rats (SCNTATCVTHRLAGLLSRSGGVVKDNFVPTNVGSEAF; ends and bridges not checked; cysteine pairing not given here; UniProt P01256 83-119, looked up) | – | 1.62 | 2.13 | –
13 | Rat calcitonin: peptide compared for inhibition of gastric emptying in conscious rats (CGNLSTCMLGTYTQDLNKFHTFPQTSIGVGAP; ends and bridges not checked; cysteine pairing not given here; UniProt P01257 85-116, looked up) | – | 0.64 | 0.94 | –

— patent EP2057188B1 (priority 2006, dated 2008)
